Reference: patent publication US20110150836A1, “METHODS OF TREATING HBV AND HCV INFECTION” (Gilead Sciences, Inc., priority 2009, published 2011)

System: human peripheral blood mononuclear cells (PBMCs)
Experiment: Induction of cytokines in human PBMCs in vitro (Luminex/Upstate multi-plex)
Format: cell-based
Conditions: 24 hours; for IFN-α concentration / IFN-β concentration / IFN-γ concentration / IL1-α concentration / IL1-β concentration / IL-1ra concentration / IL-6 concentration / IL-10 concentration / IL-12 concentration / TNF-α concentration: PBMC supernatant
Procedure: Frozen human PBMCs were thawed and used to seed the wells of 96 well plates (7.5×10^5cells/well in 190 μL/well culture medium (CM)). The cells were incubated for 1 hour at 37° C. at a 5% CO2. […] The plates were incubated at 37° C., 5% CO2, for 24 hours, then centrifuged at 1200 rpm for 10 minutes. After centrifugation the supernatant was collected and stored at −80° C. The supernatant was assayed using Luminex and Upstate multi-plex kits for the presence of various cytokines.

CCCCOc1nc(N)c2nc(O)n(Cc3cccc(CN4CCCC4)c3)c2n1 [Compound A, 6-amino-2-butoxy-9-(3-(pyrrolidin-1-ylmethyl)benzyl)-9H-purin-8-ol]
production of cytokines in human PBMCs in vitro (0.1, 0.01, 0.001 μM): stimulated the production of a range of cytokines
IFN-α concentration (Compound A 0.001 μM): 208 pg/mL
IFN-β concentration (Compound A 0.001 μM): 324 pg/mL
IFN-γ concentration (Compound A 0.001 μM): 2099 pg/mL
IL1-α concentration (Compound A 0.001 μM): 7 pg/mL
IL1-β concentration (Compound A 0.001 μM): 138 pg/mL
IL-1ra concentration (Compound A 0.001 μM): 3216 pg/mL
IL-6 concentration (Compound A 0.001 μM): 27664 pg/mL
IL-10 concentration (Compound A 0.001 μM): 735 pg/mL
IL-12 concentration (Compound A 0.001 μM): 61 pg/mL
TNF-α concentration (Compound A 0.001 μM): 82 pg/mL
IFN-α concentration (Compound A 0.01 μM): 122 pg/mL
IFN-β concentration (Compound A 0.01 μM): 170 pg/mL
IFN-γ concentration (Compound A 0.01 μM): 4578 pg/mL
IL1-α concentration (Compound A 0.01 μM): 94 pg/mL
IL1-β concentration (Compound A 0.01 μM): 752 pg/mL
IL-1ra concentration (Compound A 0.01 μM): 4530 pg/mL
IL-6 concentration (Compound A 0.01 μM): 66284 pg/mL
IL-10 concentration (Compound A 0.01 μM): 992 pg/mL
IL-12 concentration (Compound A 0.01 μM): 386 pg/mL
TNF-α concentration (Compound A 0.01 μM): 1449 pg/mL
IFN-α concentration (Compound A 0.1 μM): 80 pg/mL
IFN-β concentration (Compound A 0.1 μM): 97 pg/mL
IFN-γ concentration (Compound A 0.1 μM): 5400 pg/mL
IL1-α concentration (Compound A 0.1 μM): 280 pg/mL
IL1-β concentration (Compound A 0.1 μM): 2836 pg/mL
IL-1ra concentration (Compound A 0.1 μM): 4934 pg/mL
IL-6 concentration (Compound A 0.1 μM): 93554 pg/mL
IL-10 concentration (Compound A 0.1 μM): 1523 pg/mL
IL-12 concentration (Compound A 0.1 μM): 773 pg/mL
TNF-α concentration (Compound A 0.1 μM): 3665 pg/mL
